# Assay results published in the supplement of paper PMC10307832.
# Tests used:
# Test in all cases: relative viability (nuclei count vs DMSO), 5 days (fraction); higher = more cells survive
# Bexarotene + Olaparib = compound: C=C(c1ccc(C(=O)O)cc1)c1cc2c(cc1C)C(C)(C)CCC2(C)C [Bexarotene] + O=C(c1cc(Cc2n[nH]c(=O)c3ccccc23)ccc1F)N1CCN(C(=O)C2CC2)CC1 [Olaparib] (partner 8 µM)
# Outline: (§1)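 Relative viability equals treated-well nuclei counts divided by vehicle-well nuclei counts. Counts came from 4× images of lung cancer cell lines grown in 1536-well plates for 5 days after pin-tool dosing on the day after seeding. Dosing used one drug alone or a fixed anchor-drug dose plus five library-drug doses (not always all listed) in √10 steps, and values are medians of duplicate plates.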
# Bexarotene + Phenformin = compound: C=C(c1ccc(C(=O)O)cc1)c1cc2c(cc1C)C(C)(C)CCC2(C)C [Bexarotene] + N=C(N)NC(=N)NCCc1ccccc1 [Phenformin] (partner 250 µM)
# Outline: as §1
# Bexarotene + Lapatinib = compound: C=C(c1ccc(C(=O)O)cc1)c1cc2c(cc1C)C(C)(C)CCC2(C)C [Bexarotene] + CS(=O)(=O)CCNCc1ccc(-c2ccc3ncnc(Nc4ccc(OCc5cccc(F)c5)c(Cl)c4)c3c2)o1 [Lapatinib] (partner 2 µM)
# Outline: as §1
# Bexarotene + Trametinib = compound: C=C(c1ccc(C(=O)O)cc1)c1cc2c(cc1C)C(C)(C)CCC2(C)C [Bexarotene] + CC(=O)Nc1cccc(-n2c(=O)n(C3CC3)c(=O)c3c(Nc4ccc(I)cc4F)n(C)c(=O)c(C)c32)c1 [Trametinib] (partner 0.02 µM)
# Outline: as §1
Cell Line,relative viability (Bexarotene + Olaparib; first compound 0.08 µM),relative viability (Bexarotene + Olaparib; first compound 0.253 µM),relative viability (Bexarotene + Olaparib; first compound 0.8 µM),relative viability (Bexarotene + Olaparib; first compound 2.53 µM),relative viability (Bexarotene + Olaparib; first compound 8 µM),relative viability (Bexarotene + Phenformin; first compound 0.08 µM),relative viability (Bexarotene + Phenformin; first compound 0.253 µM),relative viability (Bexarotene + Phenformin; first compound 0.8 µM),relative viability (Bexarotene + Phenformin; first compound 2.53 µM),relative viability (Bexarotene + Phenformin; first compound 8 µM),relative viability (Bexarotene + Lapatinib; first compound 0.08 µM),relative viability (Bexarotene + Lapatinib; first compound 0.253 µM),relative viability (Bexarotene + Lapatinib; first compound 0.8 µM),relative viability (Bexarotene + Lapatinib; first compound 2.53 µM),relative viability (Bexarotene + Lapatinib; first compound 8 µM),relative viability (Bexarotene + Trametinib; first compound 0.08 µM),relative viability (Bexarotene + Trametinib; first compound 0.253 µM),relative viability (Bexarotene + Trametinib; first compound 0.8 µM),relative viability (Bexarotene + Trametinib; first compound 2.53 µM),relative viability (Bexarotene + Trametinib; first compound 8 µM)
NCI-H661,0.769,0.756,0.73,0.751,0.707,0.314,0.296,0.261,0.283,0.272,0.432,0.554,0.477,0.516,0.513,0.58,0.523,0.544,0.543,0.495
NCI-H1993,0.979,1.08,0.94,1.01,0.896,0.527,0.553,0.572,0.576,0.557,0.858,0.826,0.809,0.802,0.814,0.547,0.541,0.507,0.395,0.544
NCI-H1437,0.613,0.638,0.599,0.623,0.597,0.307,0.327,0.301,0.392,0.32,0.975,0.893,0.759,0.9,0.778,0.552,0.508,0.488,0.482,0.459
UMC-11,0.387,0.425,0.525,0.353,0.37,0.372,0.327,0.314,0.301,0.295,0.943,0.907,0.894,0.803,0.916,0.638,0.668,0.623,0.634,0.658
201T,0.837,0.823,0.777,0.919,0.709,0.582,0.516,0.5,0.519,0.458,1.01,0.945,1.03,1.02,0.997,0.751,0.724,0.713,0.704,0.643
NCI-H358,0.855,0.596,0.573,0.625,0.551,0.48,0.396,0.372,0.33,0.39,0.461,0.464,0.483,0.574,0.535,0.134,0.12,0.111,0.119,0.123
NCI-H1650,0.769,0.674,0.797,0.697,0.7,0.392,0.408,0.463,0.46,0.403,0.813,0.707,0.871,0.659,0.745,0.56,0.474,0.614,0.466,0.477
LOU-NH91,0.905,0.932,0.875,0.841,0.823,0.687,0.673,0.595,0.6,0.49,0.736,0.755,0.691,0.695,0.722,0.81,0.856,0.807,0.795,0.759
HOP-62,0.452,0.711,0.56,0.43,0.371,0.738,0.701,0.698,0.651,0.571,1.02,1.09,0.943,1.14,1.1,0.412,0.502,0.385,0.412,0.422
NCI-H1915,0.265,0.262,0.284,0.278,0.242,0.378,0.373,0.382,0.383,0.36,1.1,0.793,0.979,0.999,1.04,0.297,0.286,0.266,0.255,0.218
NCI-H3122,0.667,0.751,0.617,0.645,0.618,0.379,0.367,0.359,0.385,0.372,1.09,1.06,1.12,1.08,1.12,0.25,0.229,0.191,0.238,0.224
NCI-H1651,0.201,0.226,0.208,0.206,0.197,0.446,0.318,0.307,0.357,0.345,1.08,0.968,0.887,0.862,0.753,0.861,0.867,0.884,0.875,0.827
NCI-H838,0.809,0.784,0.74,0.725,0.745,0.585,0.595,0.504,0.608,0.634,1.05,1.19,0.974,1.14,1.03,0.551,0.611,0.545,0.657,0.585
NCI-H596,0.715,0.679,0.85,0.672,0.817,0.811,0.743,0.747,0.828,0.776,1.07,1,0.783,0.916,0.928,0.862,0.876,0.654,0.762,0.802
SK-LU-1,0.557,0.43,,0.417,0.399,0.633,0.667,,0.417,0.387,0.938,0.955,,1,0.692,0.548,0.587,,0.579,0.517
NCI-H650,0.325,0.432,0.354,0.356,0.382,0.486,0.518,0.472,0.39,0.439,1.08,1.06,0.915,0.634,0.778,1.17,0.957,1.02,0.972,0.957
SK-MES-1,0.798,0.832,0.696,0.628,0.564,0.751,0.717,0.67,0.615,0.558,0.512,0.45,0.565,0.558,0.509,0.701,0.747,0.656,0.672,0.65

Cell Line,relative viability (Bexarotene + Olaparib; first compound 0.08 µM),relative viability (Bexarotene + Olaparib; first compound 0.253 µM),relative viability (Bexarotene + Olaparib; first compound 0.8 µM),relative viability (Bexarotene + Olaparib; first compound 2.53 µM),relative viability (Bexarotene + Olaparib; first compound 8 µM),relative viability (Bexarotene + Phenformin; first compound 0.08 µM),relative viability (Bexarotene + Phenformin; first compound 0.253 µM),relative viability (Bexarotene + Phenformin; first compound 0.8 µM),relative viability (Bexarotene + Phenformin; first compound 2.53 µM),relative viability (Bexarotene + Phenformin; first compound 8 µM),relative viability (Bexarotene + Lapatinib; first compound 0.08 µM),relative viability (Bexarotene + Lapatinib; first compound 0.253 µM),relative viability (Bexarotene + Lapatinib; first compound 0.8 µM),relative viability (Bexarotene + Lapatinib; first compound 2.53 µM),relative viability (Bexarotene + Lapatinib; first compound 8 µM),relative viability (Bexarotene + Trametinib; first compound 0.08 µM),relative viability (Bexarotene + Trametinib; first compound 0.253 µM),relative viability (Bexarotene + Trametinib; first compound 0.8 µM),relative viability (Bexarotene + Trametinib; first compound 2.53 µM),relative viability (Bexarotene + Trametinib; first compound 8 µM)
NCI-H1792,0.229,0.435,0.393,0.337,0.32,0.276,0.214,0.166,0.135,0.119,0.883,0.763,0.794,0.574,0.837,0.677,0.46,0.442,0.493,0.345
NCI-H1355,0.805,0.76,0.781,0.785,0.778,0.467,0.481,0.433,0.404,0.447,1.02,1.1,0.898,1.1,0.936,0.468,0.445,0.373,0.479,0.457
SW 1573,0.537,0.461,0.499,0.445,0.41,0.374,0.328,0.332,0.273,0.297,1.09,1,1.1,0.919,0.916,0.546,0.507,0.538,0.502,0.456
NCI-H2347,0.583,0.614,0.552,0.42,0.647,0.361,0.434,,0.376,0.353,1.18,1.1,0.669,1.06,0.917,0.31,0.235,0.25,0.279,0.299
LCLC-97TM1,0.383,0.421,0.411,0.31,0.269,0.473,0.438,0.406,0.454,0.451,1.05,1.2,1.39,1.15,1.19,0.187,0.216,0.157,0.165,0.191
EMC-BAC-2,0.522,0.514,0.504,,0.515,0.549,0.575,0.521,0.49,0.546,0.923,0.884,0.812,0.841,0.887,1.08,0.901,0.996,,0.88
NCI-H1975,1.03,0.906,0.783,0.851,0.836,0.492,0.419,0.436,0.446,0.407,1.25,1.01,1,1.1,0.988,0.387,0.38,0.307,0.331,0.333
BEN,1.05,0.942,1,0.853,1.06,0.289,0.27,0.268,0.214,0.279,0.869,0.51,0.623,0.513,0.66,0.994,1.02,0.943,0.804,0.997
NCI-H23,0.344,0.341,0.289,0.294,0.3,0.854,0.759,0.694,0.763,0.712,1.13,1.11,1.2,1.06,1.12,0.447,0.435,0.395,0.364,0.347
NCI-H520,0.368,0.347,0.313,0.316,0.332,0.643,0.485,0.514,0.445,0.417,1.12,0.793,0.577,0.875,0.71,0.668,0.63,0.742,0.662,0.643
CAL-12T,0.728,0.64,0.658,0.648,0.67,0.578,0.511,0.572,0.513,0.519,0.632,,0.638,,0.543,0.349,0.286,0.319,0.233,0.319
EPLC-272H,0.824,0.773,0.641,0.758,0.845,0.304,0.27,0.313,0.3,0.373,0.982,0.825,0.898,0.746,0.865,0.318,0.277,0.285,0.322,0.314
NCI-H2405,0.93,0.849,0.7,0.852,0.83,0.448,0.443,0.296,0.408,0.36,1.16,1.07,0.824,1.08,1.24,0.823,0.819,0.66,0.749,0.693
HCC-15,0.666,0.703,0.721,0.654,0.689,0.524,0.533,0.472,0.496,0.475,0.93,0.984,0.944,0.833,0.846,0.372,0.431,0.371,0.371,0.365
PC-3 [JPC-3],1.01,1.1,1.02,1.06,0.938,0.489,0.514,0.448,0.52,0.505,0.519,0.48,0.427,0.466,0.446,0.708,0.719,0.595,0.654,0.678
NCI-H1944,0.625,0.573,0.617,0.602,0.494,0.278,0.238,0.228,0.238,0.218,1.17,0.934,0.961,0.929,0.768,0.526,0.517,0.465,0.47,0.425
